Literature values as cited in paper PMC6277767, “Broad and Region-Specific Impacts of the Synthetic Cannabinoid CP 55,940 in Adolescent and Adult Female Mouse Brains” (Frontiers in Molecular Neuroscience, 2018).

What was measured:
CB1 [1] = test system: CB1; set-up: method as in Felder et al., 1995; details: ref Felder et al., 1995; read-out: IC50, inhibition of adenylate cyclase at CB1; cited from earlier work
[2] = set-up: method as in Leishman et al., 2018; details: acute exposure, all age groups; ref Leishman et al., 2018; cited from earlier work
CB2 = test system: CB2; set-up: method as in Felder et al., 1995; details: ref Felder et al., 1995; read-out: IC50, inhibition of adenylate cyclase at CB2; cited from earlier work
CB1 [3] = details: ref Brents et al., 2011; read-out: EC50, stimulated G-protein binding at CB1; cited from earlier work
BV-2 microglial cells = test system: BV-2 microglial cells; set-up: method as in Rimmerman et al., 2012; details: ref Rimmerman et al., 2012; cited from earlier work
[4] = test system: human peripheral blood mononuclear cells; set-up: method as in Bileck et al., 2016; details: 10 μM for 3 h; ref Bileck et al., 2016; cited from earlier work
DAGLα = test system: DAGLα; set-up: method as in Ogasawara et al., 2016; details: reductions measured at 2 h and 4 h post-injection; ref Ogasawara et al., 2016; cited from earlier work

CCCCCc1cc(O)c2c(c1)OC(C)(C)[C@@H]1CCC(C)=C[C@@H]21 [THC, Δ^9-tetrahydrocannabinol]
IC50 (CB1 [1]): […] | brain area with highest THC levels [2]: HIPP | IC50 (CB2): 41.8 nM | EC50 (CB1 [3]): […]

C=C(C)[C@@H]1CCC(C)=C[C@H]1c1c(O)cc(CCCCC)cc1O [CBD, cannabidiol]
levels of AEA (BV-2 microglial cells): increased

CCCCCCCC(C)(C)c1ccc([C@H]2CCC[C@@H](O)C2)c(O)c1 [CP 47,497-C8]
expression of 5-LOX compared to vehicle [4]: 26 fold | expression of fatty acid synthase [4]: over twofold

C#CCO[C@@H]1CC[C@H](Cc2ccccc2)N(C(=O)n2ncc(C(O)(c3ccc(F)cc3)c3ccc(F)cc3)n2)C1 [DH376]
time for reduced 2-AG, AA and AEA levels to return to baseline (DAGLα): ≤ 8 h
